Reference: paper PMC10424705, “Physiological insight into the conserved properties of Caenorhabditis elegans acid‐sensing degenerin/epithelial sodium channels” (The Journal of Physiology, 2022)
pEC50, pIC50: −log10 of the molar value.

Legend:
Assay in all cases: two-electrode voltage clamp, Xenopus oocytes
Format in all cases: cell-based
UNC-105h [1] = biological target: T1, UNC-105h (Caenorhabditis elegans, UniProt Q09274); conditions: pH 7.4, -60 mV, ND96, room temperature; second, current-restoring phase of biphasic response; text b54 prints 6.7 µM instead
T1 construct: isoform h cDNA in KSM vector, Xenopus laevis oocytes, homomeric channel (trimer by known biology)
T1 sequence (Q09274 1-887): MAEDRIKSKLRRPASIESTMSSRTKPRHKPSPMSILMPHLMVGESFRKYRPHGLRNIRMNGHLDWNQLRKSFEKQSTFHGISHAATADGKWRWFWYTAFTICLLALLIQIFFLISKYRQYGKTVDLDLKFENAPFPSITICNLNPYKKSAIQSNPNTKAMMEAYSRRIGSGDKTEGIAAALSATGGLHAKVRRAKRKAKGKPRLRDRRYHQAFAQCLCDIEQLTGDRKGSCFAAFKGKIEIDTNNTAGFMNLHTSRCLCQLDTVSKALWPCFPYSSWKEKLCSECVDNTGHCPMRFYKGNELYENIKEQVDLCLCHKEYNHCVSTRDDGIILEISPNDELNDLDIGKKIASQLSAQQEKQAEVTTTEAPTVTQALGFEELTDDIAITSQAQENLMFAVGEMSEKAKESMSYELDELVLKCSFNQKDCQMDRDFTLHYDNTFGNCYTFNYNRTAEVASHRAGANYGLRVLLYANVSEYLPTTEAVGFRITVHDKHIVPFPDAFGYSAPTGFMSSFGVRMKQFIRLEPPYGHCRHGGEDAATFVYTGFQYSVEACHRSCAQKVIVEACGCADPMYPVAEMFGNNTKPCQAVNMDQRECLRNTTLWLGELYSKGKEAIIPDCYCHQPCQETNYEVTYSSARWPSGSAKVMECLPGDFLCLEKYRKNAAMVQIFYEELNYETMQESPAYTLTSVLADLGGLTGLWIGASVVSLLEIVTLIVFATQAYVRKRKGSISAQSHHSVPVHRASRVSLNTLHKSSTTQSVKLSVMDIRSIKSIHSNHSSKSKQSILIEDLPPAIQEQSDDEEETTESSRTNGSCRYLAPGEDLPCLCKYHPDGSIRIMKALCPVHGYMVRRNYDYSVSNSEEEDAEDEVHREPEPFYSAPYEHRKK

ASIC-1 = biological target: T2, ASIC-1 (Caenorhabditis elegans, UniProt O01635)
T2 construct: full-length cDNA in KSM vector, Xenopus laevis oocytes, homomeric channel (trimer by known biology)
T2 sequence (O01635 1-823): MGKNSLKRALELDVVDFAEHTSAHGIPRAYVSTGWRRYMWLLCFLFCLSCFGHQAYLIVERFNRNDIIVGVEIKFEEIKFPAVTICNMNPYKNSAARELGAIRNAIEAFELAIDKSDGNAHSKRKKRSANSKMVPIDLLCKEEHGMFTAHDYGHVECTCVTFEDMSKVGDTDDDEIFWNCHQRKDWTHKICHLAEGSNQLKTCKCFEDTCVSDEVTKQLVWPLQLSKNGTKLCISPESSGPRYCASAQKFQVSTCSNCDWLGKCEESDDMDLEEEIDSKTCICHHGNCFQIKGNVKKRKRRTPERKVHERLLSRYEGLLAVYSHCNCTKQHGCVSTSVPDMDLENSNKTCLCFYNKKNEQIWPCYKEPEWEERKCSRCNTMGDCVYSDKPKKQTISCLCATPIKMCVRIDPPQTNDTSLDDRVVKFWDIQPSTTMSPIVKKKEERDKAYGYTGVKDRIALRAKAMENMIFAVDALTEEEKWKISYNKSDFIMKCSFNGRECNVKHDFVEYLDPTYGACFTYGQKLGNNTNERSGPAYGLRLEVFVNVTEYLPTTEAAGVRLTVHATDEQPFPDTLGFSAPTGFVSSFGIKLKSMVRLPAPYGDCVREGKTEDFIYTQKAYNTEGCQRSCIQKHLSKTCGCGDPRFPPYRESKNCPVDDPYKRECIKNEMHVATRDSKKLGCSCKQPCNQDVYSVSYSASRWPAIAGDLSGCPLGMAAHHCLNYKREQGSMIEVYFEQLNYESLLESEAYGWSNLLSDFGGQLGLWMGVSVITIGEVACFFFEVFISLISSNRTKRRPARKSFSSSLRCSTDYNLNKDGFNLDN

UNC-105h [2] = biological target: T1, UNC-105h; conditions: pH 7.4, -60 mV, ND96, room temperature; paradoxical biphasic response, low-concentration inhibition

`N=C(N)NC(=O)c1nc(Cl)c(N)nc1N` [amiloride] was tested, and the pEC50 (UNC-105h [1]) was 5.23, the pIC50 (ASIC-1) was 3.97 and the pIC50 (UNC-105h [2]) was 6.12.
